PMC3933693, “Novel Inhibitors of Mitochondrial sn-Glycerol 3-phosphate Dehydrogenase” (PLoS ONE, 2014)

Assays:
mGPDH = biological target: T1, mGPDH (Rattus norvegicus, UniProt P35571); assay: Superoxide/H2O2 production by mGPDH in isolated skeletal muscle mitochondria (Amplex UltraRed); type: biochemical; conditions: for mGPDH (% change from DMSO): primary screen, ∼2.5 µM, average of duplicates, 16.7 mM glycerol phosphate, no added calcium
T1 construct: Activity of mGPDH in frozen-thawed skeletal muscle mitochondria was measured; from tissue; host or cells: skeletal muscle mitochondria
T1 sequence (P35571 43-727): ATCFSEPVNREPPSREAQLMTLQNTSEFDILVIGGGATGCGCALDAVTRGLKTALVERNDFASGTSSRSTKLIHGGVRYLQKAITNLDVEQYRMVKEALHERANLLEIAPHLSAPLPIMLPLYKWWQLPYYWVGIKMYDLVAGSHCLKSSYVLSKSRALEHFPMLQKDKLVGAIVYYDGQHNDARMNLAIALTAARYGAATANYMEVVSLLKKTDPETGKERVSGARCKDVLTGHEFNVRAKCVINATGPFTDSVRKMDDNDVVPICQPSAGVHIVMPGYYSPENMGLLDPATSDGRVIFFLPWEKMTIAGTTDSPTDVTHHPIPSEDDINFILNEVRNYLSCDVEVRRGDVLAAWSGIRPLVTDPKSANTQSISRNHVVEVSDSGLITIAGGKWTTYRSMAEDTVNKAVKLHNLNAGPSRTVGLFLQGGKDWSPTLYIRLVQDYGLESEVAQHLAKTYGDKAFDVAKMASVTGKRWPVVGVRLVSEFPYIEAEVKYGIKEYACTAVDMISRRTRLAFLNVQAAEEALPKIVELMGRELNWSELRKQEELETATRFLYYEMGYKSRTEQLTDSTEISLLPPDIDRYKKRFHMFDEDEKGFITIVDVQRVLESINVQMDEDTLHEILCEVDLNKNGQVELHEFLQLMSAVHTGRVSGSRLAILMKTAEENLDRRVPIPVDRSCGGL

[1] = system: flavin mononucleotide site of complex I (site IF) plus matrix NAD-linked dehydrogenases (site IF/DH); assay: Site-specific H2O2 production from site IF/DH in skeletal muscle mitochondria; type: biochemical, rat; conditions: primary screen, ∼2.5 µM, average of duplicates
Procedure: (§1) Superoxide was measured as H2O2 after dismutation by endogenous or exogenous superoxide dismutase. Rates of total superoxide/H2O2 production were measured fluorimetrically using Amplex UltraRed in the presence of exogenous superoxide dismutase and horseradish peroxidase in a Varian Cary Eclipse fluorimeter as previously described. Rates of production from specific sites were determined as previously described using the following eight conditions: flavin mononucleotide site of complex I (site IF) plus matrix NAD-linked dehydrogenases (collectively "site IF/DH") with 5 mM glutamate, 5 mM malate, and 4 µM rotenone; ubiquinone-binding site of complex I (site IQ) with either 0.5 or 5 mM succinate; flavin site of complex II (site IIF) with either 15 µM palmitoylcarnitine, 2.5 µM antimycin A, and 2 µM myxothiazol or 0.5 mM succinate, 4 µM rotenone, 2.5 µM antimycin A, and 2 µM myxothiazol, [31]; mGPDH with 1.7 mM glycerol phosphate, 4 µM rotenone, 2.5 µM antimycin A, 2 µM myxothiazol, 1 mM malonate, and 250 nM free calcium; outer ubiquinone-binding site of complex III (site IIIQo) with either 0.5 or 5 mM succinate, 4 µM rotenone and 2.5 µM antimycin A [32]. Candidate small-molecule inhibitors were added prior to the start of measurements and H2O2 calibration curves were performed in the presence of tested compounds.
(§2) 3,200 compounds were tested initially at 2.5 µM (0.025% DMSO final) in duplicate on different plates against a panel of five distinct assays of site-specific superoxide/H2O2 production as described in the previous section with minor changes. […] Endpoint fluorescence was measured on a Perkin Elmer Victor V3 fluorescent plate reader. The fluorescence intensity of each well was normalized as % change from the average of eight DMSO controls on the same plate. Duplicate wells of each of four modulators of mitochondrial metabolism known to inhibit specific sites of superoxide/H2O2 production were included on each plate as positive controls and the resulting fluorescence levels set as −100% change from DMSO controls. Known inhibitors included 20 mM aspartate (for site IF/DH), 1 µM FCCP (for site IQ), 10 mM malonate (for site IIF), and 2 µM myxothiazol (for site IIIQo). The background fluorescence of the FCCP wells in the site IQ assay was used to normalize mGPDH plates run in parallel. To minimize position-dependent effects across each assay plate, Tukey’s two-way median polish was applied to fluorescence values after initial normalization, [36]. Tukey’s polish is an iterative subtraction of the median row and column values from each well’s given row or column. The procedure is repeated until sequential medians for each row and column are zero and positional gradients in fluorescence are eliminated.

[2] = biological target: T2, outer ubiquinone-binding site of complex III (site IIIQo) (Rattus norvegicus, UniProt P00159+P20788); assay: Site-specific H2O2 production from site IIIQo in skeletal muscle mitochondria; type: biochemical; conditions: primary screen, ∼2.5 µM, average of duplicates; 5 mM succinate
T2 construct: from tissue; host or cells: skeletal muscle mitochondria
Procedure: as §1, §2

[3] = system: skeletal muscle mitochondria; assay: Mitochondrial membrane potential (ΔΨm, TMRM) powered by glutamate plus malate; type: biochemical, rat; conditions: primary screen, ∼2.5 µM, average of duplicates; glutamate and malate
Procedure: Mitochondrial membrane potential (ΔΨm) was estimated fluorimetrically as described previously [33] on the Varian fluorimeter, except the potentiometric dye TMRM was used in quench-mode in place of safranine O [34]. […] The effect of putative small-molecule inhibitors was normalized as the % change in fluorescence between vehicle treatment and complete depolarization by the uncoupler carbonyl cyanide-4-(trifluoromethoxy)phenylhydrazone (FCCP, 2 µM) added at the end of each run. When indicated, the K^+/H^+ exchanger nigericin (80 ng ⋅ ml^−1) was added to collapse the pH gradient across the mitochondrial inner membrane (ΔpH) and maximize ΔΨm.
All assays were performed with stirring at 37°C.
Additionally, four microplate assays for ΔΨm were run in parallel to the H2O2 assays. These assays were as described under “Measurement of mitochondrial H2O2 production and membrane potential” except that each substrate condition was assayed in a separate microplate. […] Plates were incubated in the dark at room temperature for 30–40 min (H2O2) or 10–15 min (ΔΨm) after the addition of substrate, and endpoint fluorescence was measured on the Victor plate reader. […] Endpoints for the ΔΨm assays were determined in pilot experiments as the times for TMRM accumulation to reach a steady state. At room temperature, this was typically ∼ 5 min and remained stable for at least 30 min. Endpoint fluorescence values were normalized as described in the previous section with wells containing FCCP serving as positive controls for the ΔΨm assays.

[4] = system: ubiquinone-binding site of complex I (site IQ); assay: Site-specific H2O2 production from site IQ in skeletal muscle mitochondria; type: biochemical, rat; conditions: primary screen, ∼2.5 µM, average of duplicates; 5 mM succinate;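 also: H2O2 from superoxide detected by Amplex UltraRed fluorescence with added superoxide dismutase and horseradish peroxidase, endpoint read 30–40 min after substrate addition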
Procedure: Superoxide was measured as H2O2 after dismutation by endogenous or exogenous superoxide dismutase. Rates of total superoxide/H2O2 production were measured fluorimetrically using Amplex UltraRed in the presence of exogenous superoxide dismutase and horseradish peroxidase in a Varian Cary Eclipse fluorimeter as previously described [27]. Rates of production from specific sites were determined as previously described using the following eight conditions: flavin mononucleotide site of complex I (site IF) plus matrix NAD-linked dehydrogenases (collectively "site IF/DH") with 5 mM glutamate, 5 mM malate, and 4 µM rotenone [28]; ubiquinone-binding site of complex I (site IQ) with either 0.5 or 5 mM succinate [29]; flavin site of complex II (site IIF) with either 15 µM palmitoylcarnitine, 2.5 µM antimycin A, and 2 µM myxothiazol or 0.5 mM succinate, 4 µM rotenone, 2.5 µM antimycin A, and 2 µM myxothiazol [30], [31]; mGPDH with 1.7 mM glycerol phosphate, 4 µM rotenone, 2.5 µM antimycin A, 2 µM myxothiazol, 1 mM malonate, and 250 nM free calcium; outer ubiquinone-binding site of complex III (site IIIQo) with either 0.5 or 5 mM succinate, 4 µM rotenone and 2.5 µM antimycin A [32]. Candidate small-molecule inhibitors were added prior to the start of measurements and H2O2 calibration curves were performed in the presence of tested compounds.
3,200 compounds were tested initially at 2.5 µM (0.025% DMSO final) in duplicate on different plates against a panel of five distinct assays of site-specific superoxide/H2O2 production as described in the previous section with minor changes. […] Endpoint fluorescence was measured on a Perkin Elmer Victor V3 fluorescent plate reader. The fluorescence intensity of each well was normalized as % change from the average of eight DMSO controls on the same plate. Duplicate wells of each of four modulators of mitochondrial metabolism known to inhibit specific sites of superoxide/H2O2 production were included on each plate as positive controls and the resulting fluorescence levels set as −100% change from DMSO controls. Known inhibitors included 20 mM aspartate (for site IF/DH), 1 µM FCCP (for site IQ), 10 mM malonate (for site IIF), and 2 µM myxothiazol (for site IIIQo). The background fluorescence of the FCCP wells in the site IQ assay was used to normalize mGPDH plates run in parallel. To minimize position-dependent effects across each assay plate, Tukey’s two-way median polish was applied to fluorescence values after initial normalization [35], [36]. Tukey’s polish is an iterative subtraction of the median row and column values from each well’s given row or column. The procedure is repeated until sequential medians for each row and column are zero and positional gradients in fluorescence are eliminated.
These 20 compounds were tested in duplicate at 0.08–80 µM (0.1% DMSO final) in microplate format for effects on site-specific H2O2 production as described above. […] Plates were incubated in the dark at room temperature for 30–40 min (H2O2) or 10–15 min (ΔΨm) after the addition of substrate, and endpoint fluorescence was measured on the Victor plate reader. Endpoints were chosen for the H2O2 assays to provide good signal-to-noise ratios and linear rates of change without the indicator dye limiting the reaction.

[5] = biological target: T3, flavin site of complex II (site IIF) (Rattus norvegicus, UniProt Q920L2); assay: Site-specific H2O2 production from site IIF in skeletal muscle mitochondria; type: biochemical; conditions: primary screen, ∼2.5 µM, average of duplicates; palmitoylcarnitine
T3 construct: from tissue; host or cells: skeletal muscle mitochondria
T3 sequence (Q920L2 35-656): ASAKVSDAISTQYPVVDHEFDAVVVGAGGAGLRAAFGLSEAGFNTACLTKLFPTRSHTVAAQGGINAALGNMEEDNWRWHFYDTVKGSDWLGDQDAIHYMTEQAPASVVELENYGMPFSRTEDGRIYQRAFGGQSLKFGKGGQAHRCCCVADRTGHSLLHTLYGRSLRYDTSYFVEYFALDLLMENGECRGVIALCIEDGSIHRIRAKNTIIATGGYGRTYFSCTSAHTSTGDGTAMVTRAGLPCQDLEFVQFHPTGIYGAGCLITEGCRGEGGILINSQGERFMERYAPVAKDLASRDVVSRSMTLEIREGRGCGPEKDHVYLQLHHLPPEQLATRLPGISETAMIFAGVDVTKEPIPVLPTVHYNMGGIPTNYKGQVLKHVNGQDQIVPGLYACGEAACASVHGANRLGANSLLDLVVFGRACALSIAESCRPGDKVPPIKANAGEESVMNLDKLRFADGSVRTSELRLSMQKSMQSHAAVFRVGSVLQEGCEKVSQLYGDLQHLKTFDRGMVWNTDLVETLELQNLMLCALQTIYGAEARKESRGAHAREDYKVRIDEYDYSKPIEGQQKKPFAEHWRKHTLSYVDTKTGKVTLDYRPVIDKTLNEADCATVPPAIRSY
T3 sequence (P21913 31-282 partner): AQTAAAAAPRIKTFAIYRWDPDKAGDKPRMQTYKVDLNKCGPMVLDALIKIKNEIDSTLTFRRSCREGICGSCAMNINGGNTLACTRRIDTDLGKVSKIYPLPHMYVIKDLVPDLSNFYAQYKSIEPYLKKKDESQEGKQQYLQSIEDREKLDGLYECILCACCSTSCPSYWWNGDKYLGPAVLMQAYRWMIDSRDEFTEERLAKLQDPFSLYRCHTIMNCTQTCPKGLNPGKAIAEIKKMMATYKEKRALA
T3 sequence (Q641Z9 30-169 partner limits assumed): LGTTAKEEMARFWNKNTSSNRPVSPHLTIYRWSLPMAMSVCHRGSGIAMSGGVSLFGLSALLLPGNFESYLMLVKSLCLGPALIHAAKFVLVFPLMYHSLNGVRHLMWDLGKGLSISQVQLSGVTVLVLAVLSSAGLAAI
T3 sequence (Q6PCT8 57-159 partner): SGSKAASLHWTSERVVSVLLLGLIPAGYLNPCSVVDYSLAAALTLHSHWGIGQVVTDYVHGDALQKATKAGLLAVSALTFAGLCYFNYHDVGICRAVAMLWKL
Procedure: as §1, §2

SMILES	effect on the rate of H2O2 production from mGPDH (mGPDH; compared with glyceraldehyde 3-phosphate, Fig. 2A)	IF/DH (% change from DMSO) [1] [%]	IIIQo (% change from DMSO) [2] [%]	ΔΨm (% change from DMSO) [3] [%]	IQ (% change from DMSO) [4] [%]	IIF (% change from DMSO) [5] [%]	mGPDH (% change from DMSO) (mGPDH) [%]
O=C(CO)COP(=O)(O)O [DHAP, dihydroxyacetone phosphate, reference compound]	less effective						
Nc1cc(S(=O)(=O)c2ccc(O)c(N)c2)ccc1O [compound 5105145]		-62.0	-48.5	-1.2	-49.7	-62.7	-37.3
NC(=O)Cc1c[nH]c2cccc(O)c12 [compound 5106694]		-39.7	-48.1	0.127	-49.2	-58.5	-32.1
O=C1c2ccccc2C(=O)N1CCc1c[nH]c2ccc(O)cc12 [compound 5106791]		-33.6	-35.4	0.466	-44.7	-42.5	-16.2
COc1ccc(NCc2ccccc2)cc1 [compound 5107549]		-41.3	-6.9	0.3	-27.5	-44.6	-28.0
O=[N+]([O-])c1ccc2[nH]c(-c3ccccc3)cc2c1 [compound 5107950]		-58.4	46.2	-14.4	-70.5	-18.1	-19.8
CCCCc1c(C(=O)O)cc(C)cc1C(=O)O [compound 5119061]		-13.1	-6.2	0.737	-6.2	-5.7	-10.0
Nc1ccc(-c2nc3ccc(N)cc3[nH]2)cc1 [compound 5137121]		-89.7	-73.9	1.1	-61.6	-106.6	-72.6
CC(C)CSC(CC(=O)O)C(=O)O (stereo not shown) [compound 5152843]		-19.0	-15.7	-0.119	-6.2	-7.8	-10.7
O=S(=O)(Nc1ccc(O)c(Br)c1)c1ccc(Cl)cc1 [compound 5158529]		-54.3	-42.6	-0.4	-50.5	-47.6	-23.5
O=C1N=C(c2ccccc2)C(c2ccccc2)N1 (stereo not shown) [compound 5162292]		-7.5	-23.8	-2.7	-4.2	-24.8	-13.1
COc1ccc(NCCNc2ccc(OC)cc2)cc1 [compound 5174308]		-73.0	-30.1	0.352	-49.0	-50.8	-37.5
Nc1ccccc1S(=O)(=O)Nc1cccc2cccnc12 [compound 5175136]		-42.5	9.1	0.113	-18.9	-14.5	-16.1
Nc1cc(C(=O)O)c(N)cc1C(=O)O [compound 5180162]		-5.6	-3.2	-0.24	-6.3	-10.7	-10.8
O=C(Cc1ccccc1)Nc1cc(C(=O)O)c(NC(=O)Cc2ccccc2)cc1C(=O)O [compound 5181020]		-40.9	-32.7	0.05	-35.6	-39.7	-31.6
CC(=O)N(C)c1ccc(NC(=O)c2ccc(-c3ccccc3)cc2)cc1 [compound 5191683]		-3.4	-9.7	0.5	-6.3	-1.2	-10.7
CN(C)c1nc2ccc(O)cc2s1 [compound 5195231]		-166.4	-41.2	0.4	-66.7	-110.1	-68.8
CC(C)c1nnc(NC(=O)c2cccc([N+](=O)[O-])c2)s1 [compound 5210298]		-36.0	4.3	-4.4	-67.3	-17.8	-17.8
Cc1ccc(NC(=O)c2ccc(C(C)(C)C)cc2)cc1 [compound 5210384]		6.3	11.8	-1.1	1.4	-0.156	-11.4
COc1ccc(O)c(CN2CCC(N3CCCCC3)CC2)c1 [compound 5410291]		-15.5	-19.0	-0.0836	-18.2		-18.0
COc1cc(CN2CCOCC2)ccc1O [compound 5423875]		-12.7	-15.0	0.5	-20.0		-11.3
CCN1CCN(C/C=C/c2ccc(N(C)C)cc2)CC1 [compound 5424907]		-6.5	-5.7	0.00666	-2.9		-13.4
